According to ChEMBL document CHEMBL1124592, “In vitro metabolic transformations of vinblastine: oxidations catalyzed by human ceruloplasmin” (J Med Chem, 1989):
Values after ≈ are worked out from the molar mass of the structure shown.

Tested on: CCRF-CEM
Experiment: Inhibition against […]-T-Cell leukemic cell line
Type: functional, cell-based
Details: Homo sapiens

Structure (SMILES)	IC50
CCC(=O)CC1CN(C=O)CCc2c([nH]c3ccccc23)[C@@](C(=O)OC)(c2cc3c(cc2OC)N(C)C2C4(C(=O)OC)OC5C=CN6CCC32C6[C@]5(CC)C4OC(C)=O)C1 (stereo not given in full)	14 µg/mL (≈ 17 µM)
CCC(=O)C[C@@H]1CN(C=O)CCc2c([nH]c3ccccc23)[C@@](C(=O)OC)(c2cc3c(cc2OC)N(C)[C@H]2[C@@](O)(C(=O)OC)[C@H](OC(C)=O)[C@]4(CC)C=CCN5CC[C@]32[C@@H]54)C1	7.7 µg/mL (≈ 9.33 µM)
CC[C@]1(O)C[C@@H]2CN(CCc3c([nH]c4ccccc34)[C@@](C(=O)OC)(c3cc4c(cc3OC)N(C)[C@H]3[C@@](O)(C(=O)OC)[C@H](OC(C)=O)[C@]5(CC)C=CCN6CC[C@]43[C@@H]65)C2)C1 [VINBLASTINE]	0.1 µg/mL (≈ 0.123 µM)
CC[C@]1(O)C[C@H]2CN(CCc3c([nH]c4ccccc34)[C@@](C(=O)OC)(c3cc4c(cc3OC)N(C=O)[C@H]3[C@@](O)(C(=O)OC)[C@H](OC(C)=O)[C@]5(CC)C=CCN6CC[C@]43[C@@H]65)C2)C1 [VINCRISTINE]	0.025 µg/mL (≈ 0.0303 µM)
CC[C@]12CN3CCc4c([nH]c5ccccc45)[C@@](C(=O)OC)(c4cc5c(cc4OC)N(C)[C@H]4[C@@](O)(C(=O)OC)[C@H](OC(C)=O)[C@]6(CC)C=CCN7CC[C@]54[C@@H]76)C[C@@H](C3)[C@H]1O2.CC[C@]12CN3CCc4c([nH]c5ccccc45)[C@@](C(=O)OC)(c4cc5c(cc4OC)N(C)[C@H]4[C@@](O)(C(=O)OC)[C@H](OC(C)=O)[C@]6(CC)C=CCN7CC[C@]54[C@@H]76)C[C@@H](C3)[C@H]1O2.O=S(=O)(O)O [VINLEUROSINE SULFATE]	0.4 µg/mL
